In ChEMBL document CHEMBL5291721, “A preclinical secondary pharmacology resource illuminates target-adverse drug reaction associations of marketed drugs” (Nat Commun, 2023):
Where a SMILES comes first, the peptide text is derived from it. [ ]: non-standard residue; d: D form. pGlu = O=C1CC[C@@H](C(=O)O)N1; Thz = O=C(O)[C@@H]1CSCN1

Tests used:
[1] = molecular target: Mu-type opioid receptor (Homo sapiens, UniProt P35372); assay: biochemical; assay type: functional
[2] = molecular target: Histamine H1 receptor (Homo sapiens, UniProt P35367)
Histamine H1 receptor, sequence (P35367 whole entry): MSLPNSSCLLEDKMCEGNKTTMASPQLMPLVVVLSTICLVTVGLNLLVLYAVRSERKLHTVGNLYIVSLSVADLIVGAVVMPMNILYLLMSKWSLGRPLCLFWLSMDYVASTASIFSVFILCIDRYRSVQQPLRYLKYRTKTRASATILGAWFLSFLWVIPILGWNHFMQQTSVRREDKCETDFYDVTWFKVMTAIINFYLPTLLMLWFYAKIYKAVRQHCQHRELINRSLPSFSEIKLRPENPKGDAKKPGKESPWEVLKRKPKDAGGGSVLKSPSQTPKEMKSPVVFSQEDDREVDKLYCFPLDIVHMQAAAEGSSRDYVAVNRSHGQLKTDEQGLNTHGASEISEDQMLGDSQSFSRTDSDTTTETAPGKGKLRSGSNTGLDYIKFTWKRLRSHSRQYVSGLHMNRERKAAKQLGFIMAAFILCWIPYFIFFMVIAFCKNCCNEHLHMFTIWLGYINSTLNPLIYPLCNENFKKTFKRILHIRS

[3] = molecular target: T1, Alpha-1A adrenergic receptor (Homo sapiens, UniProt P35348); assay type: functional, cell-based
T1 sequence (P35348 whole entry): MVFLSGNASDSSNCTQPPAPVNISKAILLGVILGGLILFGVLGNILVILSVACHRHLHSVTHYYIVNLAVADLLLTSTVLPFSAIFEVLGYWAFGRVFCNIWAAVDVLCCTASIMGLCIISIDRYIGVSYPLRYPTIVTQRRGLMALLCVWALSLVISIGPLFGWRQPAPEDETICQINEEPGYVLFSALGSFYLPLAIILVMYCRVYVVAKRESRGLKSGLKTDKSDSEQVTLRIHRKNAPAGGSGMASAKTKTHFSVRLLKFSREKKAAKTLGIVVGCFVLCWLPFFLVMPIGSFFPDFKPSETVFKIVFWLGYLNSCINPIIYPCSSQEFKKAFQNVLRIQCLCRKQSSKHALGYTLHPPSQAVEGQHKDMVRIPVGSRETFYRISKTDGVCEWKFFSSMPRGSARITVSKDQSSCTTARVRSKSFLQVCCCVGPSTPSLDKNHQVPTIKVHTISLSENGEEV

[4] = molecular target: T2, Muscarinic acetylcholine receptor M1 (Homo sapiens, UniProt P11229); assay type: functional
T2 sequence (P11229 whole entry): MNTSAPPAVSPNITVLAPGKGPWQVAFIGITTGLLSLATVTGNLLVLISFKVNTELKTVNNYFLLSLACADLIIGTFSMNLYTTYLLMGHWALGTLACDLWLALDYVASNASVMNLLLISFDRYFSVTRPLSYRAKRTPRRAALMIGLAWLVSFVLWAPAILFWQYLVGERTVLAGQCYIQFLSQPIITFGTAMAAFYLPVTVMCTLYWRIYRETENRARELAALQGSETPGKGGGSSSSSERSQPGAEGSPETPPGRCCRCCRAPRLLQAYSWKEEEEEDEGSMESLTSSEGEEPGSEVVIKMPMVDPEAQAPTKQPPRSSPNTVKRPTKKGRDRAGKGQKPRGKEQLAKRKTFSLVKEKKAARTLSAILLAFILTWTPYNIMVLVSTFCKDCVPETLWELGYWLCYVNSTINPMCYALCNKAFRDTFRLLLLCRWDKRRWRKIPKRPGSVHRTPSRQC

[5] = molecular target: T3, Alpha-2B adrenergic receptor (Homo sapiens, UniProt P18089)
T3 sequence (P18089 whole entry): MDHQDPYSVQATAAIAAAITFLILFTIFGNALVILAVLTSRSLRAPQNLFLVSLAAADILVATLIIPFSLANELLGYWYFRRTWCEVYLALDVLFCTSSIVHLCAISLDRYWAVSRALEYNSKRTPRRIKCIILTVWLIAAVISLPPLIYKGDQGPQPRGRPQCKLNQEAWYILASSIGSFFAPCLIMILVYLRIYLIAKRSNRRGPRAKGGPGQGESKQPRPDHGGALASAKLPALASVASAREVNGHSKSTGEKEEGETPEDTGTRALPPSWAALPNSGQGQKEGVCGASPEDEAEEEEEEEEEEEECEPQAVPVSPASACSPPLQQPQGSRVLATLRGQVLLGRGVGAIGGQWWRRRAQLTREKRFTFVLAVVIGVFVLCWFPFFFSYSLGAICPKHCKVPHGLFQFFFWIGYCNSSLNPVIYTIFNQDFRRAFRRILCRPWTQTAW

[6] = molecular target: T4, Cannabinoid receptor 1 (Homo sapiens, UniProt P21554); assay type: functional, cell-based
T4 sequence (P21554 whole entry): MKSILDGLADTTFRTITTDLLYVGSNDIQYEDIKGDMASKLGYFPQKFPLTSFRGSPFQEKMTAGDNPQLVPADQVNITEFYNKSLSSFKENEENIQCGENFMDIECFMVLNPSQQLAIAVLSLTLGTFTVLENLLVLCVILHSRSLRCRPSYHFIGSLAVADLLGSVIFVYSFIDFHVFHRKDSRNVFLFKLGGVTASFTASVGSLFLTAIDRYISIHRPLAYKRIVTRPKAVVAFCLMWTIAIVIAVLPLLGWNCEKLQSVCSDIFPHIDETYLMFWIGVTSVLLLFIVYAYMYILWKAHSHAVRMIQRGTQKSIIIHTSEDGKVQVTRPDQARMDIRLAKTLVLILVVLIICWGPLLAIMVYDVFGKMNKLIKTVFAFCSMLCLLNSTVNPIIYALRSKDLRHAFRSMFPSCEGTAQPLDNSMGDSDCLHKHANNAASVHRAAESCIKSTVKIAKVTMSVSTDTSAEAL

[7] = molecular target: T4, Cannabinoid receptor 1; assay type: functional, cell-based; remark: listed apart in the source
[8] = molecular target: T1, Alpha-1A adrenergic receptor
[9] = molecular target: T4, Cannabinoid receptor 1
[10] = molecular target: Melanocortin receptor 4 (Homo sapiens, UniProt P32245)
Melanocortin receptor 4, sequence (P32245 whole entry): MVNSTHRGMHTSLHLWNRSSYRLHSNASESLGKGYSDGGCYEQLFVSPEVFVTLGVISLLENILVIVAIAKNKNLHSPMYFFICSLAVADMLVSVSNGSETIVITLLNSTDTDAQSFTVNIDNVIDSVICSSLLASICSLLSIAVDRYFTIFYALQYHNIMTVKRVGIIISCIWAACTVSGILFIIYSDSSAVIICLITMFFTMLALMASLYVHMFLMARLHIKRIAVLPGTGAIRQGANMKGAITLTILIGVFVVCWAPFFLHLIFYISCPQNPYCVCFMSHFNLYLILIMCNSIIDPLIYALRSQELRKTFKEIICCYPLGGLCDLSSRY

[11] = molecular target: T5, 5-hydroxytryptamine receptor 1A (Homo sapiens, UniProt P08908); assay type: functional, cell-based
T5 sequence (P08908 whole entry): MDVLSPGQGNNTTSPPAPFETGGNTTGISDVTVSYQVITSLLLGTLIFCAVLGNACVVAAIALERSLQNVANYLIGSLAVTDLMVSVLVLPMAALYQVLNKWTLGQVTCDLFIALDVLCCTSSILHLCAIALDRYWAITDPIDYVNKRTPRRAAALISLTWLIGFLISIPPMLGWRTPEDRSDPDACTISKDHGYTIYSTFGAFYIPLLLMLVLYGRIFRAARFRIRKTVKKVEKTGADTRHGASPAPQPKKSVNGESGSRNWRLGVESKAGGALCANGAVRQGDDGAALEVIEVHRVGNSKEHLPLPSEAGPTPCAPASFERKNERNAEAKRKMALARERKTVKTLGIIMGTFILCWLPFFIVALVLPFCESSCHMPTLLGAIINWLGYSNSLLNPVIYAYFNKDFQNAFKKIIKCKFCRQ

[12] = molecular target: T6, Estrogen receptor (Homo sapiens, UniProt P03372)
T6 sequence (P03372 whole entry): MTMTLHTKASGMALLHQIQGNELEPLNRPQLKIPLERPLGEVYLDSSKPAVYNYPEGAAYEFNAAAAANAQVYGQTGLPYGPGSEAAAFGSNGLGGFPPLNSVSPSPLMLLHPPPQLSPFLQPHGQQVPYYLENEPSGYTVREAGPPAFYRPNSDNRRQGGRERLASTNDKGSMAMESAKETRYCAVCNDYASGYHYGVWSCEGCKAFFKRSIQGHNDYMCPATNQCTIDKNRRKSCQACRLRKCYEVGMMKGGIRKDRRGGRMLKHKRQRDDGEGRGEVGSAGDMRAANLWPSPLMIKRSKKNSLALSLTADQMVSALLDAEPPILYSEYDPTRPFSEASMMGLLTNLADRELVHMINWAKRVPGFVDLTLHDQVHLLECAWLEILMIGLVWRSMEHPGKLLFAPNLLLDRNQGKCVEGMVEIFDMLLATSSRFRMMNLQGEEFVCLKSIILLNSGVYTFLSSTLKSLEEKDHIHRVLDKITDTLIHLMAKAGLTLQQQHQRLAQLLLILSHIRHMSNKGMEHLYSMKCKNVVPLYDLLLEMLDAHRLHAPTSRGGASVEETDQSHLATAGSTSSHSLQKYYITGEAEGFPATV

Measured: AC50
Further: assay procedure not described here.

Mu-type opioid receptor, sequence (P35372 whole entry): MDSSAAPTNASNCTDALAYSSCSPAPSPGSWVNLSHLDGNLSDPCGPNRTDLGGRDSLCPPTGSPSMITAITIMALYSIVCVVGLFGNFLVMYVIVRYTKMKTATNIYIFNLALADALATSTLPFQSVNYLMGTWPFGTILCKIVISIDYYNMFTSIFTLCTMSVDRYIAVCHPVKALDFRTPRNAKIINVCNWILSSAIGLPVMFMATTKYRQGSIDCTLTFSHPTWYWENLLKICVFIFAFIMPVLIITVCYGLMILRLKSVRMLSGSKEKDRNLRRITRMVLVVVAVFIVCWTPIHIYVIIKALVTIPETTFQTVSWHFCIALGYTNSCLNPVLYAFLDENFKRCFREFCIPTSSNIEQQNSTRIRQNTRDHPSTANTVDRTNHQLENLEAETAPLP

Oc1cc(O)c(Cl)cn1
> 30 µM: [1] | [2] | [4] | [5] | [6] | [7]
26 µM: [3]

CCC1(CCC(C)C)C(=O)NC(=O)NC1=O [AMOBARBITAL]
> 10 µM: [8] | [9] | [10] | [11]

Clc1ccc(CCC(Cn2ccnc2)Sc2c(Cl)cccc2Cl)cc1 (centres undefined) [BUTOCONAZOLE]
19 µM: [5]
> 30 µM: [1] | [9] | [2] | [3] | [4]
20 µM: [12]

Oc1ccc(CCNCCCCCCNCCc2ccccc2)cc1O [DOPEXAMINE]
14 µM: [4]
19 µM: [5]
> 30 µM: [1] | [11] | [12] | [6] | [7]
1.4 µM: [3]
15 µM: [2]

CCN1CC(CCN2CCOCC2)C(c2ccccc2)(c2ccccc2)C1=O (centres undefined) [DOXAPRAM]
> 30 µM: [1] | [3] | [11] | [6] | [7]

CC(C)NC[C@H](O)COc1ccc(CC(N)=O)cc1 [ESATENOLOL]
> 10 µM: [8] | [11]
> 30 µM: [10] | [12]

CCc1cc2c(s1)-n1c(C)nnc1CN=C2c1ccccc1Cl [ETIZOLAM]
> 30 µM: [1] | [2] | [3] | [4] | [12] | [5] | [6] | [7]

CC/C=C\C/C=C\C/C=C\C/C=C\C/C=C\CCCC(=O)OCC [ICOSAPENT ETHYL]
> 10 µM: [12]
> 30 µM: [1] | [2] | [3] | [11] | [4] | [5] | [6] | [7]

COc1ccc(CN2CCN(C(c3ccc(F)cc3)c3ccc(F)cc3)CC2)c(OC)c1OC [LOMERIZINE]
3.3 µM: [1]
0.94 µM: [4]
4.5 µM: [2]
> 30 µM: [6]
19 µM: [5]
23 µM: [7]
8.2 µM: [3]

CC(=O)[C@H]1CC[C@H]2[C@@H]3C[C@H](C)C4=CC(=O)CC[C@]4(C)[C@H]3[C@@H](O)C[C@]12C [MEDRYSONE]
> 30 µM: [3] | [6] | [7]
> 10 µM: [8] | [2] | [10] | [11] | [4] | [5]

Fc1ccc([C@@H]2CCNC[C@H]2COc2ccc3c(c2)OCO3)cc1 [PAROXETINE]
2.72 µM: [9]
> 10 µM: [11]
> 30 µM: [10] | [12]

OC[C@H]1O[C@@H](Oc2cc(O)cc(/C=C/c3ccc(O)cc3)c2)[C@H](O)[C@@H](O)[C@@H]1O [PICEID]
> 30 µM: [1] | [2] | [4] | [12] | [5] | [6] | [7]
19 µM: [3]

O=C1CC[C@@H](C(=O)N2CSC[C@H]2C(=O)O)N1 [PIDOTIMOD] ([pGlu]-[Thz]-OH)
> 30 µM: [1] | [2] | [3] | [4] | [12] | [5] | [6] | [7]

CCCN(CCC)S(=O)(=O)c1ccc(C(=O)O)cc1 [PROBENECID]
> 10 µM: [8] | [9] | [10] | [11]

CCC(NC(C)C)C(O)c1ccc(O)c2[nH]c(=O)ccc12 (centres undefined) [PROCATEROL]
> 30 µM: [1] | [2] | [3] | [4] | [12] | [5] | [6] | [7]

O=c1c(O)c(-c2ccc(O)c(O)c2)oc2cc(O)cc(O)c12 [QUERCETIN]
> 30 µM: [10] | [12]
> 10 µM: [2] | [11] | [4] | [5]

C=CC[N+]1([C@H]2C[C@H]3[C@@H]4CC[C@H]5C[C@H](O)[C@@H](N6CCOCC6)C[C@]5(C)[C@H]4CC[C@]3(C)[C@H]2OC(C)=O)CCCC1 [ROCURONIUM]
> 30 µM: [1] | [9] | [2] | [10] | [3] | [11] | [4] | [12] | [5]

CCCN1CCCC[C@H]1C(=O)Nc1c(C)cccc1C [ROPIVACAINE]
> 30 µM: [1] | [2] | [3] | [4] | [5] | [6] | [7]

Cn1c(=O)c2c(ncn2CCOC(=O)C(C)(C)Oc2ccc(Cl)cc2)n(C)c1=O [THEOFIBRATE]
> 30 µM: [1] | [2] | [3] | [11] | [4] | [12] | [5] | [6] | [7]

COc1cc(C(=O)NC2CCCNC2)cc(OC)c1OC (centres undefined) [TROXIPIDE]
> 30 µM: [1] | [3] | [6] | [7]

CC(C)(C)NCC(O)c1ccccc1Cl (centres undefined) [TULOBUTEROL]
> 30 µM: [1] | [3] | [11] | [4] | [12] | [5] | [6] | [7]

CCCCCCCC(=O)CC[C@@H]1[C@@H](C/C=C\CCCC(=O)OC(C)C)[C@@H](O)C[C@H]1O [UNOPROSTONE ISOPROPYL]
> 30 µM: [2] | [4]

CC(C(=O)O)c1ccc2c(c1)CC(=O)c1ccccc1S2 (centres undefined) [ZALTOPROFEN]
> 30 µM: [1] | [2] | [3] | [4] | [12] | [5] | [6] | [7]
